By EC50 is commonly meant the concentration giving half of the maximal effect.

The values that follow come from US9133206B2, “Benzodiazepine and pyridodiazepine derivatives” (AbbVie Inc., priority 2010, dated 2015).

The structures appear in SMILES notation.

In the experiment the test system is SK-N-SH human neuroblastoma cells. Briefly: Serum Deprivation/JC-1 Mitochondrial Membrane Potential (MMP) Assay. The format is cell-based. The following applies: for activation at 3 µM: single dose 3 μM, JC-1 ratio normalized to peak value for 10 μM dimebolin (n=2-4), read-out: JC-1 max % (@ 3 μM); for EC50: serum deprivation ~18 hours, JC-1 ratio normalized to peak value for 10 μM dimebolin, single curve fit to mean data of n=2-3; for Emax: read-out: JC-1 max %. An outline of the steps:
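SK-N-SH cells serum-deprived ~18 h with compound, then stained with JC-1 for 40 min at 37 °C; red (560/595 nm) to green (485/535 nm) ratio reports membrane potential. Response normalized to peak from 10 μM dimebolin; EC50 from fit to mean of n=2–3, or single-dose 3 μM; DMSO ≤1%.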

Where [1] appears, read: Homo sapiens, serum deprivation.
The mark [2] stands for this setting: Homo sapiens, SK-N-SH, percent maximal intensity in JC-1 ratio normalized to peak value for 10 μM dimebolin, serum deprivation.

Turning to `CC(C)C(=O)N1Cc2ccccc2N2CCN(Cc3ccccc3)CC2C1` (centres unmarked) [Example 100, 1-(3-benzyl-1,2,3,4,4a,5-hexahydropyrazino[1,2-a][1,4]benzodiazepin-6(7H)-yl)-2-methylpropan-1-one], the activation at 3 µM under setting [1] turned out to be 118%.

Regarding `COCCN(C)C(=O)N1Cc2ccccc2N2CCN(Cc3ccccc3)CC2C1` (centres unmarked) [Example 149, 3-benzyl-N-(2-methoxyethyl)-N-methyl-1,2,3,4,4a,5-hexahydropyrazino[1,2-a][1,4]benzodiazepine-6(7H)-carboxamide], the activation at 3 µM under setting [1] worked out at 218%.

Regarding `c1ccc(CN2CCN3c4ccccc4CN(CC4CCCCC4)CC3C2)cc1` (centres unmarked) [Example 144, 3-benzyl-6-(cyclohexylmethyl)-1,2,3,4,4a,5,6,7-octahydropyrazino[1,2-a][1,4]benzodiazepine], the EC50 (Homo sapiens, SK-N-SH, 18 h) stood at 3.63 µM. In addition, the Emax under setting [2] was 132%.

In the case of `O=C(c1ccc(Br)cc1)N1Cc2ccccc2N2CCN(Cc3ccccc3)CC2C1` (centres unmarked) [Example 31, (3-benzyl-1,2,3,4,4a,5-hexahydropyrazino[1,2-a][1,4]benzodiazepin-6(7H)-yl)(4-bromophenyl)methanone], the EC50 (Homo sapiens, SK-N-SH, 18 h) amounted to 1.97 µM. Further, under setting [2], the Emax amounted to 218%.

As for `Cn1cccc1C(=O)N1Cc2ccccc2N2CCN(Cc3ccccc3)CC2C1` (centres unmarked) [Example 105, (3-benzyl-1,2,3,4,4a,5-hexahydropyrazino[1,2-a][1,4]benzodiazepin-6(7H)-yl)(1-methyl-1H-pyrrol-2-yl)methanone], the EC50 (Homo sapiens, SK-N-SH, 18 h) was 2.52 µM. Besides, the Emax under setting [2] was 197%.

With `c1ccc(CN2CCN3c4ccccc4NCCC3C2)cc1` (centres unmarked) [Example 26, 3-benzyl-1,2,3,4,4a,5,6,7-octahydropyrazino[1,2-a][1,5]benzodiazepine], the EC50 (Homo sapiens, SK-N-SH, 18 h) is 3.47 µM. Also, the Emax under setting [2] was 210%.

As to `c1ccc(CN2CCN3c4ccccc4CN(Cc4ccccn4)CC3C2)cc1` (centres unmarked) [Example 29, 3-benzyl-6-(pyridin-2-ylmethyl)-1,2,3,4,4a,5,6,7-octahydropyrazino[1,2-a][1,4]benzodiazepine], the EC50 (Homo sapiens, SK-N-SH, 18 h) was 4.87 µM. For the same molecule, the Emax under setting [2] stood at 221%.

On to `Brc1cccc(CN2Cc3ccccc3N3CCN(Cc4ccccc4)CC3C2)c1` (centres unmarked) [Example 136, 3-benzyl-6-(3-bromobenzyl)-1,2,3,4,4a,5,6,7-octahydropyrazino[1,2-a][1,4]benzodiazepine], for which the EC50 (Homo sapiens, SK-N-SH, 18 h) worked out at 2.2 µM. Also, under setting [2], the Emax was 172%.

Consider `O=C([C@@H]1C[C@H]1c1ccccc1)N1Cc2ccccc2N2CCN(Cc3ccccc3)CC2C1` (relative stereo) [Example 15, (3-benzyl-1,2,3,4,4a,5-hexahydropyrazino[1,2-a][1,4]benzodiazepin-6(7H)-yl)[trans-2-phenylcyclopropyl]methanone], for which the EC50 (Homo sapiens, SK-N-SH, 18 h) came out at 2.19 µM. In addition, the Emax under setting [2] is 225%.

Turning to `CN1CCN2c3ccccc3CN(C3CCN(C(=O)c4ccccc4)CC3)CC2C1` (centres unmarked) [Example 173, [4-(3-methyl-1,2,3,4,4a,5-hexahydropyrazino[1,2-a][1,4]benzodiazepin-6(7H)-yl)piperidin-1-yl](phenyl)methanone], the activation at 3 µM under setting [1] is 68%.

`COc1ccccc1CN1Cc2ccccc2N2CCN(Cc3ccccc3)CC2C1` (centres unmarked) [Example 133, 3-benzyl-6-(2-methoxybenzyl)-1,2,3,4,4a,5,6,7-octahydropyrazino[1,2-a][1,4]benzodiazepine]: the EC50 (Homo sapiens, SK-N-SH, 18 h) turned out to be 3.64 µM. Besides, under setting [2], the Emax was determined as 163%.

Take `c1ccc(CN2CCN3c4ccccc4N(Cc4ccncc4)CCC3C2)cc1` (centres unmarked) [Example 48, 3-benzyl-7-(pyridin-4-ylmethyl)-1,2,3,4,4a,5,6,7-octahydropyrazino[1,2-a][1,5]benzodiazepine]: the EC50 (Homo sapiens, SK-N-SH, 18 h) was 1.84 µM. The Emax under setting [2] was determined as 125%.

For the molecule `Clc1ccc(CN2Cc3ccccc3N3CCN(Cc4ccccc4)CC3C2)cn1` (centres unmarked) [Example 34, 3-benzyl-6-[(6-chloropyridin-3-yl)methyl]-1,2,3,4,4a,5,6,7-octahydropyrazino[1,2-a][1,4]benzodiazepine], the EC50 (Homo sapiens, SK-N-SH, 18 h) stood at 2.94 µM. Moreover, under setting [2], the Emax was 213%.

With `O=C(NCCc1cccnc1)N1Cc2ccccc2N2CCN(Cc3ccccc3)CC2C1` (centres unmarked) [Example 150, 3-benzyl-N-[2-(pyridin-3-yl)ethyl]-1,2,3,4,4a,5-hexahydropyrazino[1,2-a][1,4]benzodiazepine-6(7H)-carboxamide], the activation at 3 µM under setting [1] is 212%.

With `O=C(c1ccc(F)cc1)N1Cc2ccccc2N2CCN(Cc3ccccc3)CC2C1` (centres unmarked) [Example 10, (3-benzyl-1,2,3,4,4a,5-hexahydropyrazino[1,2-a][1,4]benzodiazepin-6(7H)-yl)(4-fluorophenyl)methanone], where the note is “Homo sapiens, SK-N-SH, 18 h”, the EC50 was 2.74 µM. Also, the Emax under setting [2] stood at 248%.

With `N#CCCN(C(=O)N1Cc2ccccc2N2CCN(Cc3ccccc3)CC2C1)C1CC1` (centres unmarked) [Example 153, 3-benzyl-N-(2-cyanoethyl)-N-cyclopropyl-1,2,3,4,4a,5-hexahydropyrazino[1,2-a][1,4]benzodiazepine-6(7H)-carboxamide], the activation at 3 µM under setting [1] was 68%.

Regarding `CCN(CCOC)C(=O)N1Cc2ccccc2N2CCN(Cc3ccccc3)CC2C1` (centres unmarked) [Example 157, 3-benzyl-N-ethyl-N-(2-methoxyethyl)-1,2,3,4,4a,5-hexahydropyrazino[1,2-a][1,4]benzodiazepine-6(7H)-carboxamide], under setting [1], the activation at 3 µM was 264%.

Regarding `Oc1ccc(CN2Cc3ccccc3N3CCN(Cc4ccccc4)CC3C2)cc1` (centres unmarked) [Example 50, 4-[(3-benzyl-1,2,3,4,4a,5-hexahydropyrazino[1,2-a][1,4]benzodiazepin-6(7H)-yl)methyl]phenol], under “Homo sapiens, SK-N-SH, 18 h”, the EC50 amounted to 5.95 µM. Besides, the Emax under setting [2] amounted to 240%.

`Brc1ccc(CN2Cc3ccccc3N3CCNCC3C2)cc1` (centres unmarked) [Example 71, 6-(4-bromobenzyl)-1,2,3,4,4a,5,6,7-octahydropyrazino[1,2-a][1,4]benzodiazepine]: the EC50 (Homo sapiens, SK-N-SH, 18 h) came to 7.85 µM. Moreover, the Emax under setting [2] was found to be 105%.

Regarding `Ic1ccc(CN2Cc3ccccc3N3CCN(Cc4ccccc4)CC3C2)cc1` (centres unmarked) [Example 46, 3-benzyl-6-(4-iodobenzyl)-1,2,3,4,4a,5,6,7-octahydropyrazino[1,2-a][1,4]benzodiazepine], the EC50 (Homo sapiens, SK-N-SH, 18 h) is 1.87 µM. Also, the Emax under setting [2] stood at 192%.

Turning to `c1ccc(CN2CCN3c4ccccc4CN(Cc4ccc5ccccc5n4)CC3C2)cc1` (centres unmarked) [Example 126, 3-benzyl-6-(quinolin-2-ylmethyl)-1,2,3,4,4a,5,6,7-octahydropyrazino[1,2-a][1,4]benzodiazepine], the EC50 (Homo sapiens, SK-N-SH, 18 h) amounted to 1.89 µM. Further, the Emax under setting [2] is 150%.

Take `O=C(NCC(=O)N1Cc2ccccc2N2CCN(Cc3ccccc3)CC2C1)c1ccco1` (centres unmarked) [Example 99, N-[2-(3-benzyl-1,2,3,4,4a,5-hexahydropyrazino[1,2-a][1,4]benzodiazepin-6(7H)-yl)-2-oxoethyl]-2-furamide]: the EC50 (Homo sapiens, SK-N-SH, 18 h) was found to be 3.15 µM. Moreover, the Emax under setting [2] stood at 165%.

With `Brc1ccccc1CN1Cc2ccccc2N2CCN(Cc3ccccc3)CC2C1` (centres unmarked) [Example 132, 3-benzyl-6-(2-bromobenzyl)-1,2,3,4,4a,5,6,7-octahydropyrazino[1,2-a][1,4]benzodiazepine], the EC50 (Homo sapiens, SK-N-SH, 18 h) came to 3.33 µM. Also, the Emax under setting [2] amounted to 192%.

As for `Brc1ccc(CN2Cc3ccccc3N3CCN(Cc4ccccc4)CC3C2)cc1` (single isomer, unassigned; (-)) [Example 18, (−)-3-benzyl-6-(4-bromobenzyl)-1,2,3,4,4a,5,6,7-octahydropyrazino[1,2-a][1,4]benzodiazepine], the EC50 is 2.72 µM. Further, the JC-1 max % (percent maximal intensity in JC-1 ratio normalized to peak value for 10 μM dimebolin, serum deprivation) is on record as 178%.

As for `Fc1ccc(CN2CCN3c4ccccc4CNCC3C2)cc1` (centres unmarked) [Example 40, 3-(4-fluorobenzyl)-1,2,3,4,4a,5,6,7-octahydropyrazino[1,2-a][1,4]benzodiazepine], the EC50 (Homo sapiens, SK-N-SH, 18 h) was determined as 11.8 µM. Moreover, under setting [2], the Emax was determined as 224%.

On to `O=C(c1cnccn1)N1Cc2ccccc2N2CCN(Cc3ccccc3)CC2C1` (centres unmarked) [Example 12, (3-benzyl-1,2,3,4,4a,5-hexahydropyrazino[1,2-a][1,4]benzodiazepin-6(7H)-yl)(pyrazin-2-yl)methanone], for which, under “Homo sapiens, SK-N-SH, 18 h”, the EC50 turned out to be 1.11 µM. In addition, under setting [2], the Emax amounted to 198%.

On to `c1ccc(CN2CCN3c4ccccc4CN(c4ccccn4)CC3C2)cc1` (centres unmarked) [Example 16, 3-benzyl-6-(pyridin-2-yl)-1,2,3,4,4a,5,6,7-octahydropyrazino[1,2-a][1,4]benzodiazepine], for which the EC50 (Homo sapiens, SK-N-SH, 18 h) is 3.63 µM. The Emax under setting [2] was 131%.

For the molecule `O=C(NCCc1ccncc1)N1Cc2ccccc2N2CCN(Cc3ccccc3)CC2C1` (centres unmarked) [Example 152, 3-benzyl-N-[2-(pyridin-4-yl)ethyl]-1,2,3,4,4a,5-hexahydropyrazino[1,2-a][1,4]benzodiazepine-6(7H)-carboxamide], the EC50 (Homo sapiens, SK-N-SH, 18 h) stood at 3.08 µM. Under setting [2], the Emax was found to be 239%.

As to `CC(=O)N1CCN2c3ccccc3CN(C(=O)N3CCOCC3)CC2C1` (centres unmarked) [Example 83, 1-[6-(morpholin-4-ylcarbonyl)-1,2,4a,5,6,7-hexahydropyrazino[1,2-a][1,4]benzodiazepin-3(4H)-yl]ethanone], the EC50 (Homo sapiens, SK-N-SH, 18 h) was above 31.6 µM. Further, the Emax under setting [2] was 34%.

As for `c1ccc(CN2CCN3c4ccccc4CN(Cc4cccnc4)CC3C2)cc1` (centres unmarked) [Example 28, 3-benzyl-6-(pyridin-3-ylmethyl)-1,2,3,4,4a,5,6,7-octahydropyrazino[1,2-a][1,4]benzodiazepine], the EC50 (Homo sapiens, SK-N-SH, 18 h) is 9.59 µM. Also, the Emax under setting [2] is 88%.

Regarding `Fc1ccc(CN2CCN3c4ccccc4CN(Cc4ccc(Br)cc4)C[C@@H]3C2)cc1` (single isomer, unassigned) [Example 62], the EC50 (Homo sapiens, SK-N-SH, 18 h) came to 3.65 µM. Under setting [2], the Emax was 161%.
